Reference: ChEMBL document CHEMBL5370535, “Thiazolyl hydrazineylidenyl indolones as unique potential multitargeting broad-spectrum antimicrobial agents” (Eur J Med Chem, 2023)
Converted amounts (≈) assume the structure as drawn.

Columns and labels:
Type in all cases: functional
[1] = test system: Staphylococcus aureus; assay: Antibacterial activity against Staphylococcus aureus assessed as bacterial growth inhibition incubated for 24 hrs by CLSI based two serial dilution assay
[2] = test system: Escherichia coli; assay: Antibacterial activity against Escherichia coli 25922 assessed as bacterial growth inhibition incubated for 24 hrs by CLSI based two serial dilution assay
[3] = test system: Candida tropicalis; assay: Antifungal activity against Candida tropicalis assessed as inhibition of fungal growth incubated for 24 hrs by CLSI based two serial dilution assay
[4] = test system: Acinetobacter baumannii; assay: Antibacterial activity against Acinetobacter baumannii assessed as bacterial growth inhibition incubated for 24 hrs by CLSI based two serial dilution assay
[5] = test system: Pseudomonas aeruginosa; assay: Antibacterial activity against Pseudomonas aeruginosa assessed as bacterial growth inhibition incubated for 24 hrs by CLSI based two serial dilution assay
[6] = test system: Staphylococcus aureus; assay: Antibacterial activity against Staphylococcus aureus 25923 assessed as bacterial growth inhibition incubated for 24 hrs by CLSI based two serial dilution assay
[7] = test system: Escherichia coli; assay: Antibacterial activity against Escherichia coli assessed as bacterial growth inhibition incubated for 24 hrs by CLSI based two serial dilution assay
[8] = test system: Enterococcus faecalis; assay: Antibacterial activity against Enterococcus faecalis assessed as bacterial growth inhibition incubated for 24 hrs by CLSI based two serial dilution assay
[9] = test system: Candida albicans; assay: Antifungal activity against Candida albicans ATCC 90023 assessed as inhibition of fungal growth incubated for 24 hrs by CLSI based two serial dilution assay
[10] = test system: Pseudomonas aeruginosa; assay: Antibacterial activity against Pseudomonas aeruginosa ATCC 27853 assessed as bacterial growth inhibition incubated for 24 hrs by CLSI based two serial dilution assay
[11] = test system: Aspergillus fumigatus; assay: Antifungal activity against Aspergillus fumigatus assessed as inhibition of fungal growth incubated for 24 hrs by CLSI based two serial dilution assay
[12] = test system: Candida albicans; assay: Antifungal activity against Candida albicans assessed as inhibition of fungal growth incubated for 24 hrs by CLSI based two serial dilution assay
[13] = test system: Klebsiella pneumoniae; assay: Antibacterial activity against Klebsiella pneumoniae assessed as bacterial growth inhibition incubated for 24 hrs by CLSI based two serial dilution assay
[14] = test system: Candida parapsilosis; assay: Antifungal activity against Candida parapsilosis ATCC 22019 assessed as inhibition of fungal growth incubated for 24 hrs by CLSI based two serial dilution assay; conditions: Lodderomyces parapsilosis
[15] = test system: Staphylococcus aureus; assay: Antibacterial activity against Staphylococcus aureus 29213 assessed as bacterial growth inhibition incubated for 24 hrs by CLSI based two serial dilution assay
[16] = test system: Staphylococcus aureus; assay: Antibacterial activity against methicillin-resistant Staphylococcus aureus assessed as bacterial growth inhibition incubated for 24 hrs by CLSI based two serial dilution assay

SMILES | MIC [1] | MIC [2] | MIC [3] | MIC [4] | MIC [5] | MIC [6] | MIC [7] | MIC [8] | MIC [9] | MIC [10] | MIC [11] | MIC [12] | MIC [13] | MIC [14] | MIC [15] | MIC [16]
O=C1Nc2ccccc2/C1=N/Nc1nccs1 | 512 µM (≈ 125 µg/mL) | 128 µM (≈ 31.3 µg/mL) | 256 µM (≈ 62.5 µg/mL) | 64 µM (≈ 15.6 µg/mL) | 512 µM (≈ 125 µg/mL) | 128 µM (≈ 31.3 µg/mL) | 256 µM (≈ 62.5 µg/mL) | 128 µM (≈ 31.3 µg/mL) | 128 µM (≈ 31.3 µg/mL) | 128 µM (≈ 31.3 µg/mL) | 32 µM (≈ 7.82 µg/mL) | 256 µM (≈ 62.5 µg/mL) | 512 µM (≈ 125 µg/mL) | 64 µM (≈ 15.6 µg/mL) | 128 µM (≈ 31.3 µg/mL) | 128 µM (≈ 31.3 µg/mL)
C#CCN1C(=O)/C(=N\Nc2nccs2)c2ccccc21 | 256 µM (≈ 72.3 µg/mL) | 512 µM (≈ 145 µg/mL) | 256 µM (≈ 72.3 µg/mL) | 512 µM (≈ 145 µg/mL) | 256 µM (≈ 72.3 µg/mL) | 512 µM (≈ 145 µg/mL) | 512 µM (≈ 145 µg/mL) | 256 µM (≈ 72.3 µg/mL) | 256 µM (≈ 72.3 µg/mL) | 512 µM (≈ 145 µg/mL) | 64 µM (≈ 18.1 µg/mL) | 256 µM (≈ 72.3 µg/mL) | 512 µM (≈ 145 µg/mL) | 64 µM (≈ 18.1 µg/mL) | 512 µM (≈ 145 µg/mL) | 256 µM (≈ 72.3 µg/mL)
CCCCN1C(=O)/C(=N\Nc2nc(C)c(C(=O)OCC)s2)c2ccccc21 | 64 µM (≈ 24.7 µg/mL) | 128 µM (≈ 49.5 µg/mL) | 128 µM (≈ 49.5 µg/mL) | 128 µM (≈ 49.5 µg/mL) | 1 µM (≈ 0.386 µg/mL) | 512 µM (≈ 198 µg/mL) | 256 µM (≈ 98.9 µg/mL) | 256 µM (≈ 98.9 µg/mL) | 512 µM (≈ 198 µg/mL) | 256 µM (≈ 98.9 µg/mL) | 128 µM (≈ 49.5 µg/mL) | 512 µM (≈ 198 µg/mL) | 256 µM (≈ 98.9 µg/mL) | 256 µM (≈ 98.9 µg/mL) | 64 µM (≈ 24.7 µg/mL) | 128 µM (≈ 49.5 µg/mL)
CCCCN1C(=O)/C(=N\Nc2nccs2)c2cc(C)ccc21 | 4 µM (≈ 1.26 µg/mL) | 4 µM (≈ 1.26 µg/mL) | 2 µM (≈ 0.629 µg/mL) | 2 µM (≈ 0.629 µg/mL) | 16 µM (≈ 5.03 µg/mL) | 8 µM (≈ 2.52 µg/mL) | 4 µM (≈ 1.26 µg/mL) | 32 µM (≈ 10.1 µg/mL) | 4 µM (≈ 1.26 µg/mL) | 32 µM (≈ 10.1 µg/mL) | 2 µM (≈ 0.629 µg/mL) | 4 µM (≈ 1.26 µg/mL) | 2 µM (≈ 0.629 µg/mL) | 1 µM (≈ 0.314 µg/mL) | 2 µM (≈ 0.629 µg/mL) | 4 µM (≈ 1.26 µg/mL)
CCCCCCCCCCN1C(=O)/C(=N\Nc2nccs2)c2ccccc21 | 512 µM (≈ 197 µg/mL) | 64 µM (≈ 24.6 µg/mL) | 64 µM (≈ 24.6 µg/mL) | 512 µM (≈ 197 µg/mL) | 64 µM (≈ 24.6 µg/mL) | 512 µM (≈ 197 µg/mL) | 512 µM (≈ 197 µg/mL) | 4 µM (≈ 1.54 µg/mL) | 256 µM (≈ 98.4 µg/mL) | 512 µM (≈ 197 µg/mL) | 512 µM (≈ 197 µg/mL) | 512 µM (≈ 197 µg/mL) | 256 µM (≈ 98.4 µg/mL) | 256 µM (≈ 98.4 µg/mL) | 512 µM (≈ 197 µg/mL) | 512 µM (≈ 197 µg/mL)
CCCCCCCCN1C(=O)/C(=N\Nc2nccs2)c2ccccc21 | 512 µM (≈ 183 µg/mL) | 256 µM (≈ 91.3 µg/mL) | 512 µM (≈ 183 µg/mL) | 512 µM (≈ 183 µg/mL) | 64 µM (≈ 22.8 µg/mL) | 512 µM (≈ 183 µg/mL) | 512 µM (≈ 183 µg/mL) | 32 µM (≈ 11.4 µg/mL) | 256 µM (≈ 91.3 µg/mL) | 128 µM (≈ 45.6 µg/mL) | 512 µM (≈ 183 µg/mL) | 512 µM (≈ 183 µg/mL) | 512 µM (≈ 183 µg/mL) | 128 µM (≈ 45.6 µg/mL) | 512 µM (≈ 183 µg/mL) | 512 µM (≈ 183 µg/mL)
CCCCN1C(=O)/C(=N\Nc2nccs2)c2ccc(Br)cc21 | 1 µM (≈ 0.379 µg/mL) | 16 µM (≈ 6.07 µg/mL) | 1 µM (≈ 0.379 µg/mL) | 0.5 µM (≈ 0.19 µg/mL) | 1 µM (≈ 0.379 µg/mL) | 0.5 µM (≈ 0.19 µg/mL) | 0.5 µM (≈ 0.19 µg/mL) | 4 µM (≈ 1.52 µg/mL) | 1 µM (≈ 0.379 µg/mL) | 0.5 µM (≈ 0.19 µg/mL) | 0.5 µM (≈ 0.19 µg/mL) | 0.5 µM (≈ 0.19 µg/mL) | 0.5 µM (≈ 0.19 µg/mL) | 0.5 µM (≈ 0.19 µg/mL) | 4 µM (≈ 1.52 µg/mL) | 1 µM (≈ 0.379 µg/mL)
CCCCN1C(=O)/C(=N\Nc2nc(C)c(C(C)=O)s2)c2ccccc21 | 16 µM (≈ 5.7 µg/mL) | 512 µM (≈ 183 µg/mL) | 512 µM (≈ 183 µg/mL) | 512 µM (≈ 183 µg/mL) | 16 µM (≈ 5.7 µg/mL) | 512 µM (≈ 183 µg/mL) | 512 µM (≈ 183 µg/mL) | 512 µM (≈ 183 µg/mL) | 512 µM (≈ 183 µg/mL) | 512 µM (≈ 183 µg/mL) | 512 µM (≈ 183 µg/mL) | 512 µM (≈ 183 µg/mL) | 512 µM (≈ 183 µg/mL) | 512 µM (≈ 183 µg/mL) | 16 µM (≈ 5.7 µg/mL) | 512 µM (≈ 183 µg/mL)
CCCN1C(=O)/C(=N\Nc2nccs2)c2ccccc21 | 16 µM (≈ 4.58 µg/mL) | 4 µM (≈ 1.15 µg/mL) | 32 µM (≈ 9.16 µg/mL) | 32 µM (≈ 9.16 µg/mL) | 2 µM (≈ 0.573 µg/mL) | 4 µM (≈ 1.15 µg/mL) | 128 µM (≈ 36.7 µg/mL) | 16 µM (≈ 4.58 µg/mL) | 128 µM (≈ 36.7 µg/mL) | 32 µM (≈ 9.16 µg/mL) | 16 µM (≈ 4.58 µg/mL) | 64 µM (≈ 18.3 µg/mL) | 32 µM (≈ 9.16 µg/mL) | 32 µM (≈ 9.16 µg/mL) | 4 µM (≈ 1.15 µg/mL) | 32 µM (≈ 9.16 µg/mL)
CCCCN1C(=O)/C(=N\Nc2nccs2)c2cc(OC)ccc21 | 32 µM (≈ 10.6 µg/mL) | 4 µM (≈ 1.32 µg/mL) | 128 µM (≈ 42.3 µg/mL) | 16 µM (≈ 5.29 µg/mL) | 4 µM (≈ 1.32 µg/mL) | 16 µM (≈ 5.29 µg/mL) | 16 µM (≈ 5.29 µg/mL) | 4 µM (≈ 1.32 µg/mL) | 32 µM (≈ 10.6 µg/mL) | 32 µM (≈ 10.6 µg/mL) | 32 µM (≈ 10.6 µg/mL) | 64 µM (≈ 21.1 µg/mL) | 128 µM (≈ 42.3 µg/mL) | 16 µM (≈ 5.29 µg/mL) | 16 µM (≈ 5.29 µg/mL) | 8 µM (≈ 2.64 µg/mL)
